Experimental data taken from patent EP1660884B1, “CROWN ETHER DERIVATIVES” (Life Technologies Corporation, priority 2003, dated 2005).
Entries after “also recorded” stand apart in the source; their conditions may differ.

Tested on: Jurkat cells
Assay: Calibration of sodium indicator fluorescence response in cells (flow cytometry)
Format: cell-based
Details: Jurkat cells loaded with 5 µM for 30 minutes at 37 °C, 2 µM gramicidin, extracellular Na+ 0-145 mM, excitation at 488 nm
Method: Example 3: Calibration of sodium indicator fluorescence response in cells.
Jurkat cells were loaded with a 5 µM solution of either Compound 25 (a compound according to Formula (I) as shown below), or commercially available SODIUM GREEN tetraacetate indicator (Molecular Probes, Inc., Eugene, OR) and 10 µM for Compound 87 (Example 9) for 30 minutes at 37 °C. The use of PLURONIC dispersing agent helped dissolve the selected indicator. Intracellular sodium concentrations were then established by varying the sodium concentration of the extracellular buffer in the presence of 2 µM gramicidin (a sodium-pore forming antibiotic). The extracellular buffer was set at 0 mM, 10 mM, 20 mM, 50 mM, 100 mM, and 145 mM, respectively. Intracellular fluorescence response of the selected indicators was measured using a FACSCAN flow cytometer and associated software, with fluorescence excitation at 488 nm.

CC(=O)OCOC(=O)CN1CCOCCN(CC(=O)OCOC(C)=O)c2ccc(-c3c4cc(F)c(=O)cc-4oc4cc(OCOC(C)=O)c(F)cc34)cc2OCCOc2cc(C)ccc21 [Compound 25]
intracellular fluorescence intensity as intracellular Na^+ concentration was increased: consistent increase in fluorescence intensity
intracellular fluorescence intensity compared with SODIUM GREEN indicator (Figure 3): substantially brighter intracellular fluorescence intensity than the SODIUM GREEN indicator; also recorded: stronger fluorescence intensity than SODIUM GREEN sodium indicator
